Consider seven compounds from patent US7652014B2, “Substituted 6-cyclohexylalkyl substituted 2-quinolinones and 2-quinoxalinones as poly(ADP-ribose) polymerase inhibitors” (Janssen Pharmaceutica, priority 2003, dated 2010).

The first data set has as its system colitis.
Experiment: not given
The following applies: rats, trinitrobenzene sulfonic acid induced colitis, distal colon; cited from earlier work.
With `NC(=O)c1cccc(N)c1` [3-amino-benzamide], the “effect on inflammatory response in colitis” value is listed as “reduced the inflammatory response”.

The target in another data set is T1, PARP-1 enzyme (Homo sapiens, UniProt P09874).
T1 construct: made in house
T1 sequence (P09874 whole entry): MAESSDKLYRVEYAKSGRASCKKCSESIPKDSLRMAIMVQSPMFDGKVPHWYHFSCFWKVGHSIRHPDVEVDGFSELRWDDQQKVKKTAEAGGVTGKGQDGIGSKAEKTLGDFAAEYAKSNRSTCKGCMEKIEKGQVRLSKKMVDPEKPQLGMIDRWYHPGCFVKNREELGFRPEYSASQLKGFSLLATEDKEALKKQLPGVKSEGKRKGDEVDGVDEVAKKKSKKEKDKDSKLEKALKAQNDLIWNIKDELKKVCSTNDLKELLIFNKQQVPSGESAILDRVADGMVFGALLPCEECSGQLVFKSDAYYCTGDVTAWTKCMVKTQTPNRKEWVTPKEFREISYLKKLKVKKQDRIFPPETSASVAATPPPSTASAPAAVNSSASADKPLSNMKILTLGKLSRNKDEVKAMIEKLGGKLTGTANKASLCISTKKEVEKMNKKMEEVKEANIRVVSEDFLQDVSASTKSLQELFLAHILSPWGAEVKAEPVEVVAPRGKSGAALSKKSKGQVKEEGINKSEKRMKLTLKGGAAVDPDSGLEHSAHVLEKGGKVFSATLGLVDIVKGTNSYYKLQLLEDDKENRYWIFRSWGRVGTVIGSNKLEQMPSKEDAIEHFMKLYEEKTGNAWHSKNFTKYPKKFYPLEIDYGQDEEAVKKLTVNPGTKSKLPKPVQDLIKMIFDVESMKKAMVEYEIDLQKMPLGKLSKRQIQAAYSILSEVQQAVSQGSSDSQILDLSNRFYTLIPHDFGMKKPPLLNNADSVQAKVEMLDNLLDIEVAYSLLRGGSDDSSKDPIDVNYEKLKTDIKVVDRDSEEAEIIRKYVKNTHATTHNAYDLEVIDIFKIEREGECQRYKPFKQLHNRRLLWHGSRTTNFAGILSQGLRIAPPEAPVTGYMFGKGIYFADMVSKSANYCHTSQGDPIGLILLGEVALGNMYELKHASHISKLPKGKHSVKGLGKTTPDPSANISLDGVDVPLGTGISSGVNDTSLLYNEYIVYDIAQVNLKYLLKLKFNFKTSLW
Put plainly: In vitro Scintillation Proximity Assay (SPA) for PARP-1 inhibitory activity. Format: biochemical. The conditions noted are these: nicked DNA activated PARP-1, [3H]-NAD+, biotinylated histones; read-out: In vitro SPA pIC50 (converted). The protocol:
Pharmacological Example In Vitro Scintillation Proximity Assay (SPA) for PARP-1 Inhibitory Activity
Compounds of the present invention were tested in an in vitro assay based on SPA technology (proprietary to Amersham Pharmacia Biotech).
In principle, the assay relies upon the well established SPA technology for the detection of poly(ADP-ribosyl)ation of biotinylated target proteins, i.e histones. This ribosylation is induced using nicked DNA activated PARP-1 enzyme and [^3H]-nicotinamide adenine dinucleotide ([^3H]-NAD^+) as ADP-ribosyl donor.
As inducer of PARP-1 enzyme activity, nicked DNA was prepared. For this, 25 mg of DNA (supplier: Sigma) was dissolved in 25 ml DNAse buffer (10 mM Tris-HCl, pH 7.4; 0.5 mg/ml Bovine Serum Albumine (BSA); 5 mM MgCl2.6H2O and 1 mM KCl) to which 50 μl DNAse solution (1 mg/ml in 0.15 M NaCl) was added. After an incubation of 90 min. at 37° C., the reaction was terminated by adding 1.45 g NaCl, followed by a further incubation at 58° C. for 15 min. The reaction mixture was cooled on ice and dialysed at 4° C. for respectively 1.5 and 2 hours against 1.5 l of 0.2 M KCl, and twice against 1.5 l of 0.01 M KCl for 1.5 and 2 h respectively. The mixture was aliquoted and stored at −20° C. Histones (1 mg/ml, type II-A, supplier: Sigma) were biotinylated using the biotinylation kit of Amersham and stored aliquoted at −20° C. A stock solution of 100 mg/ml SPA poly(vinyl toluene) (PVT) beads (supplier: Amersham) was made in PBS. A stock solution of [^3H]-NAD^+ was made by adding 120 μl of [^3H]-NAD^+ (0.1 mCi/ml, supplier: NEN) to 6 ml incubation buffer (50 mM Tris/HCl, pH 8; 0.2 mM DTT; 4 mM MgCl2). A solution of 4 mM NAD^+ (supplier: Roche) was made in incubation buffer (from a 100 mM stock solution in water stored at −20° C.). The PARP-1 enzyme was produced using art known techniques, i.e. cloning and expression of the protein starting from human liver cDNA. Information concerning the used protein sequence of the PARP-1 enzyme including literature references can be found in the Swiss-Prot database under primary accession number P09874. Biotinylated histones and PVT-SPA beads were mixed and pre-incubated for 30 min. at room temperature. PARP-1 enzyme (concentration was lot dependent) was mixed with the nicked DNA and the mixture was pre-incubated for 30 min. at 4° C. Equal parts of this histones/PVT-SPA beads solution and PARP-1 enzyme/DNA solution were mixed and 75 μl of this mixture together with 1 μl of compound in DMSO and 25 μl of [^3H]-NAD^+ was added per well into a 96-well microtiterplate. The final concentrations in the incubation mixture were 2 μg/ml for the biotinylated histones, 2 mg/ml for the PVT-SPA beads, 2 μg/ml for the nicked DNA and between 5-10 μg/ml for the PARP-1 enzyme. After incubation of the mixture for 15 min. at room temperature, the reaction was terminated by adding 100 μl of 4 mM NAD^+ in incubation buffer (final concentration 2 mM) and plates were mixed.
The beads were allowed to sediment for at least 15 min. and plates transferred to a TopCountNXT™ (Packard) for scintillation counting, values were expressed as counts per minute (cpm). For each experiment, controls (containing PARP-1 enzyme and DMSO without compound), a blank incubation (containing DMSO but no PARP-1 enzyme or compound) and samples (containing PARP-1 enzyme and compound dissolved in DMSO) were run in parallel. All compounds tested were dissolved and eventually further diluted in DMSO. […] In each test, the blank value was subtracted from both the control and the sample values. The control sample represented maximal PARP-1 enzyme activity. For each sample, the amount of cpm was expressed as a percentage of the mean cpm value of the controls. When appropriate, IC50-values (concentration of the drug, needed to reduce the PARP-1 enzyme activity to 50% of the control) were computed using linear interpolation between the experimental points just above and below the 50% level. […]
Background: Scintillation proximity formats need no separation of bound from free tracer.
Consider `CCc1cc2cc(C(C3CC=CCC3)N3CCC(O)CC3)ccc2[nH]c1=O` (stereo not drawn) [Co. No. 11], for which the IC50 was 0.184 µM.

As to `CCc1cc2cc(C(C3CCCCC3)N3CCC(O)(c4cncn4C)CC3)ccc2[nH]c1=O` (stereo not drawn) [Co. No. 6], the IC50 was 0.508 µM.

`CCc1cc2cc(C(C3CCCCC3)N3CCC4(CC3)CO4)ccc2[nH]c1=O` (stereo not drawn) [Co. No. 4]: the IC50 was 0.3 µM.

In the case of `CCc1cc2cc(C(OCCN(C)C)C3CCCCC3)ccc2[nH]c1=O` (stereo not drawn) [Co. No. 8], the IC50 is 0.873 µM.

Turning to `CCc1cc2cc([C@@H](OCCN(C)C)C3CCCCC3)ccc2[nH]c1=O` [Co. No. 9], the IC50 is 0.614 µM.

The target of another data set is T1, PARP-1 enzyme. Description: In vitro filtration assay for PARP-1 inhibitory activity. It is filed as biochemical. The conditions noted are these: nicked DNA activated PARP-1, [32P]-NAD, histones; read-out: In vitro filtration assay pIC50 (converted). The protocol:
In Vitro Filtration Assay for PARP-1 Inhibitory Activity
Compounds of the present invention were tested in an in vitro filtration assay assessing PARP-1 activity (triggered in the presence of nicked DNA) by means of its histone poly (ADP-ribosyl)ation activity using [^32P]-NAD as ADP-ribosyl donor. The radioactive ribosylated histones were precipitated by trichloroacetic acid (TCA) in 96-well filterplates and the incorporated [^32P] measured using a scintillation counter A mixture of histones (stock solution: 5 mg/ml in H2O), NAD^+ (stock solution: 100 mM in H2O), and [^32P]-NAD^+ in incubation buffer (50 mM Tris/HCl, pH 8; 0.2 mM DTT; 4 mM MgCl2) was made. A mixture of the PARP-1 enzyme (5-10 μg/ml) and nicked DNA was also made. The nicked DNA was prepared as described in the in vitro SPA for PARP-1 inhibitory activity. Seventy-five μl of the PARP-1 enzyme/DNA mixture together with 1 μl of compound in DMSO and 25 μl of histones-NAD^+/[^32P]-NAD^+ mixture was added per well of a 96-well filterplate (0.45 μm, supplier Millipore). The final concentrations in the incubation mixture were 2 μg/ml for the histones, 0.1 mM for the NAD^+, 200 μM (0.5 μC) for the [^32P]-NAD^+ and 2 μg/ml for the nicked DNA. Plates were incubated for 15 min. at room temperature and the reaction was terminated by the addition of 10 μl ice cold 100% TCA followed by the addition of 10 μl ice-cold BSA solution (1% in H2O). The protein fraction was allowed to precipitate for 10 min. at 4° C. and plates were vacuum filtered. The plates were subsequently washed with, for each well, 1 ml of 10% ice cold TCA, 1 ml of 5% ice cold TCA and 1 ml of 5% TCA at room temperature. Finally 100 μl of scintillation solution (Microscint 40, Packard) was added to each well and the plates were transferred to a TopCountNXT™ (supplier: Packard) for scintillation counting and values were expressed as counts per minute (cpm). For each experiment, controls (containing PARP-1 enzyme and DMSO without compound), a blank incubation (containing DMSO but no PARP-1 enzyme or compound) and samples (containing PARP-1 enzyme and compound dissolved in DMSO) were run in parallel. All compounds tested were dissolved and eventually further diluted in DMSO. In first instance, compounds were tested at a concentration of 10^−5M. […] In each test, the blank value was subtracted from both the control and the sample values. The control sample represented maximal PARP-1 enzyme activity. For each sample, the amount of cpm was expressed as a percentage of the mean cpm value of the controls. When appropriate, IC50-values (concentration of the drug, needed to reduce the PARP-1 enzyme activity to 50% of the control) were computed using linear interpolation between the experimental points just above and below the 50% level. Herein the effects of test compounds are expressed as pIC50 (the negative log value of the IC50-value). As a reference compound, 4-amino-1,8-naphthalimide was included to validate the filtration assay.
In the case of `CCc1cc2cc(C(C3CC=CCC3)N3CCC(O)CC3)ccc2[nH]c1=O` (stereo not drawn) [Co. No. 11], the IC50 was 0.785 µM.

With `CCc1cc2cc(C(C3CCCCC3)N3CCC(O)(c4cncn4C)CC3)ccc2[nH]c1=O` (stereo not drawn) [Co. No. 6], the IC50 was 1.35 µM.

For `CCc1cc2cc(C(C3CCCCC3)N3CCC4(CC3)CO4)ccc2[nH]c1=O` (stereo not drawn) [Co. No. 4], the IC50 is 1.52 µM.

Take `CCc1cc2cc(C(OCCN(C)C)C3CCCCC3)ccc2[nH]c1=O` (stereo not drawn) [Co. No. 8]: the IC50 was 6.73 µM.

Regarding `CCc1cc2cc([C@@H](OCCN(C)C)C3CCCCC3)ccc2[nH]c1=O` [Co. No. 9], the IC50 was 4.38 µM.

A further data set has as its system infarct size caused by ischemia and reperfusion of the heart.
Experiment: not given
The conditions noted are these: rabbits, single injection 1 mg/kg; cited from earlier work.
In the case of `Oc1cccc2c(O)nccc12` [1,5-dihydroxyisoquinoline], the “reduction in infarct size” value was 38-48%.

Staying with this data set, now noted: rabbits, single injection 10 mg/kg, one minute before occlusion or one minute before reperfusion; cited from earlier work.
As to `NC(=O)c1cccc(N)c1` [3-amino-benzamide], the “reduction in infarct size in the heart” value was 32-42%.

System in a further data set: not given
Experiment: not given
Details: not given
For the compound `CCc1cc2cc(C(C3CC=CCC3)N3CCC(O)CC3)ccc2[nH]c1=O` (stereo not drawn) [Co. No. 11], the melting point (in general, the temperature of the solid-liquid transition) stood at 196 °C.

In turn, `CCc1cc2cc(C(C3CCCCC3)N3CCC(O)(c4cncn4C)CC3)ccc2[nH]c1=O` (stereo not drawn) [Co. No. 6] displayed a melting point of 194 °C.

In turn, `CCc1cc2cc(C(C3CCCCC3)N3CCC4(CC3)CO4)ccc2[nH]c1=O` (stereo not drawn) [Co. No. 4] came in with a melting point of 200 °C.

`CCc1cc2cc(C(OCCN(C)C)C3CCCCC3)ccc2[nH]c1=O` (stereo not drawn) [Co. No. 8]: the melting point is 122 °C.

In turn, `CCc1cc2cc([C@@H](OCCN(C)C)C3CCCCC3)ccc2[nH]c1=O` [Co. No. 9] showed a melting point of 115 °C.
